Our source for the IC50 values is patent US20080200454A1, “CARBON-LINKED TETRAHYDRO-PYRAZOLO-PYRIDINE MODULATORS OF CATHEPSIN S” (priority 2007, published 2008).

One assay deals with Recombinant human cathepsin S (CatS) (Homo sapiens, UniProt P25774). Nature of the assay: Recombinant human cathepsin S (CatS) inhibition assay, fluorogenic substrate Z-Valine-Valine-Arginine-AMC.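 Also: Baculovirus-expressed CatS in pH 5.0 sodium acetate buffer with DTT and NaCl, fluorescence read each minute over 20 min, inhibition derived from rate slope.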
Sequence of Recombinant human cathepsin S (CatS) (P25774 115-331): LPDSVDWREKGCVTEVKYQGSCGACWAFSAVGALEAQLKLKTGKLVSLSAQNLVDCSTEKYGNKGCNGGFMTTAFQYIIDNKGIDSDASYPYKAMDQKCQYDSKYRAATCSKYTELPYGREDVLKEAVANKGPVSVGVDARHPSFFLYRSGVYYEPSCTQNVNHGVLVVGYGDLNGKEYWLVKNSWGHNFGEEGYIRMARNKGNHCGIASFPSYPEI
Conditions: not given
For the compound `CS(=O)(=O)N1CCc2c(c(-c3ccc(Cl)c(C#Cc4cncc(CNCc5ccccc5)c4)c3)nn2CCCN2CCOCC2)C1` [Example 427, 1-[5-({2-Chloro-5-[5-(methylsulfonyl)-1-(3-morpholin-4-ylpropyl)-4,5,6,7-tetrahydro-1H-pyrazolo[4,3-c]pyridin-3-yl]phenyl}ethynyl)pyridin-3-yl]-N-(phenylmethyl)methanamine], the IC50 (usually the concentration that gives 50% inhibition) was 1990 nM.
On the same count and under the same terms, next, `NC(=O)C(=O)N1CCc2c(c(-c3ccc(Cl)c(C#Cc4ccc(CNCc5ccc(Cl)cc5)cc4)c3)nn2CCCN2CCN(c3ccccc3)CC2)C1` [Example 429, 2-{3-(4-Chloro-3-{[4-({[(4-chlorophenyl)methyl]amino}methyl)phenyl]ethynyl}phenyl)-1-[3-(4-phenylpiperazin-1-yl)propyl]-1,4,6,7-tetrahydro-5H-pyrazolo[4,3-c]pyridin-5-yl}-2-oxoacetamide]: 20 nM.
Same read-out and setting: next, `NC(=O)N1CCc2c(c(-c3ccc(Cl)c(C#Cc4ccc(CNCc5ccc(Cl)cc5)cc4)c3)nn2CCCN2CCN(c3ccccc3)CC2)C1` [Example 430, 3-(4-Chloro-3-{[4-({[(4-chlorophenyl)methyl]amino}methyl)phenyl]ethynyl}phenyl)-1-[3-(4-phenylpiperazin-1-yl)propyl]-1,4,6,7-tetrahydro-5H-pyrazolo[4,3-c]pyridine-5-carboxamide]: 40 nM; `Cc1ccsc1CNCc1ccc(C#Cc2cc(-c3nn(CCCN4CCOC[C@@H]4C)c4c3CN(S(C)(=O)=O)CC4)ccc2Cl)cc1` [Example 431, 1-[4-({2-Chloro-5-[1-{3-[(3S)-3-methylmorpholin-4-yl]propyl}-5-(methylsulfonyl)-4,5,6,7-tetrahydro-1H-pyrazolo[4,3-c]pyridin-3-yl]phenyl}ethynyl)phenyl]-N-[(3-methyl-2-thienyl)methyl]methanamine]: 170 nM.

The same assay, now with this note: CatS IC50.
As for `CS(=O)(=O)N1CCc2c(c(-c3ccc(Cl)c(C#Cc4ccc(CNCCc5cccs5)cc4)c3)nn2CCCN2CCOCC2)C1` [Example 423, N-{[4-({2-Chloro-5-[5-(methylsulfonyl)-1-(3-morpholin-4-ylpropyl)-4,5,6,7-tetrahydro-1H-pyrazolo[4,3-c]pyridin-3-yl]phenyl}ethynyl)phenyl]methyl}-2-(2-thienyl)ethanamine], the IC50 was 270 nM.
Consider `Cc1ccsc1CNCc1ccc(C#Cc2cc(-c3nn(CCCN4CCOCC4)c4c3CN(S(C)(=O)=O)CC4)ccc2Cl)cc1` [Example 424, 1-[4-({2-Chloro-5-[5-(methylsulfonyl)-1-(3-morpholin-4-ylpropyl)-4,5,6,7-tetrahydro-1H-pyrazolo[4,3-c]pyridin-3-yl]phenyl}ethynyl)phenyl]-N-[(3-methyl-2-thienyl)methyl]methanamine], for which the 50% inhibitory concentration (IC50) stood at 200 nM.
With `CS(=O)(=O)N1CCc2c(c(-c3ccc(Cl)c(C#Cc4ccc(CNCc5ccco5)cc4)c3)nn2CCCN2CCOCC2)C1` [Example 425, 1-[4-({2-Chloro-5-[5-(methylsulfonyl)-1-(3-morpholin-4-ylpropyl)-4,5,6,7-tetrahydro-1H-pyrazolo[4,3-c]pyridin-3-yl]phenyl}ethynyl)phenyl]-N-(furan-2-ylmethyl)methanamine], the IC50 stood at 70 nM.
On the same count and under the same terms, next, `Cc1cc(CNCc2ccc(C#Cc3cc(-c4nn(CCCN5CCOCC5)c5c4CN(S(C)(=O)=O)CC5)ccc3Cl)cc2)c(C(F)(F)F)o1` [Example 426, 1-[4-({2-Chloro-5-[5-(methylsulfonyl)-1-(3-morpholin-4-ylpropyl)-4,5,6,7-tetrahydro-1H-pyrazolo[4,3-c]pyridin-3-yl]phenyl}ethynyl)phenyl]-N-{[5-methyl-2-(trifluoromethyl)furan-3-yl]methyl}methanamine]: 390 nM; `CS(=O)(=O)N1CCc2c(c(-c3ccc(Cl)c(C#Cc4cncc(CNCc5ccc(Cl)cc5)c4)c3)nn2CCCN2CCOCC2)C1` [Example 428, 1-[5-({2-Chloro-5-[5-(methylsulfonyl)-1-(3-morpholin-4-ylpropyl)-4,5,6,7-tetrahydro-1H-pyrazolo[4,3-c]pyridin-3-yl]phenyl}ethynyl)pyridin-3-yl]-N-[(4-chlorophenyl)methyl]methanamine]: 3750 nM.
